Measured values taken from patent US11135184B2, “Formulations for epidermal repair” (CLARIDEI LABORATORIES, INC., priority 2013, dated 2021).

Assays:
[1] = system: 11β-hydroxysteroid dehydrogenase; settings: cited from earlier work
[2] = cited from earlier work
guinea pig ileum = settings: cited from earlier work
[3] = system: histamine-induced scratching behavior; settings: applied to the skin of mice; cited from earlier work
NF-kappaB = settings: histamine-stimulated skin; cited from earlier work
[4] = system: lymphocytic transformation; settings: cited from earlier work
atopic dry skin = settings: cited from earlier work
[5] = system: serine palmitoyltransferase; settings: cited from earlier work
[6] = system: 3′-5′ cyclic AMP phosphodiesterase; settings: cited from earlier work
[7] = system: cutaneous lupus erythematosus; test: prior treatment of a patient with cutaneous lupus erythematosus; format: in vivo, human; settings: one patient
Excerpt: A patient presented with a three year history of cutaneous lupus erythematosus. They had been suffering from systemic lupus erythematosus for some time before the rash that is characteristic of cutaneous lupus erythematosus appeared on their chest, arms, neck and face.
Prior to treatment with a treatment regime utilizing the formulations of the present disclosure, this patient had been treated with several different treatment regimens representing the standard of care for cutaneous lupus erythematosus patients. […] All attempts to reduce the patient's suffering from cutaneous lupus erythematosus had brought little to no relief.

[8] = system: ultraviolet radiation damage; settings: in vitro model of cutaneous photoaging; cited from earlier work
Δ4β-reductase = molecular target: T1, Δ4β-reductase (Homo sapiens, UniProt P51857); settings: in vitro; cited from earlier work
T1 sequence (P51857 1-326): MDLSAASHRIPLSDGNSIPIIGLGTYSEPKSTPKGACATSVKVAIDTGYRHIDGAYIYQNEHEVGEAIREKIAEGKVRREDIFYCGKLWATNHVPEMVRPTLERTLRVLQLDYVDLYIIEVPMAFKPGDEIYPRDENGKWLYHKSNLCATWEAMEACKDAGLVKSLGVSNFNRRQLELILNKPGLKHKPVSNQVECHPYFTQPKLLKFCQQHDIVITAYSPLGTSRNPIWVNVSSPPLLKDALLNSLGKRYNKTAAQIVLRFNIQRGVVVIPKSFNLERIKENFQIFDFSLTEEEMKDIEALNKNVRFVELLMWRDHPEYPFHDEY

Candida albicans = settings: in vitro; cited from earlier work
Staphylococcus aureus = settings: in vitro; cited from earlier work
contact dermatitis = settings: mice, cited from earlier work
Mycobacterium smegmatis = settings: in vitro; cited from earlier work

CC1(C)[C@@H](OC(=O)CCC(=O)O)CC[C@]2(C)[C@H]3C(=O)C=C4[C@@H]5C[C@@](C)(C(=O)O)CC[C@]5(C)CC[C@@]4(C)[C@]3(C)CC[C@@H]12 [Carbenoxolone]
inhibition of 11β-hydroxysteroid dehydrogenase [1]: inhibits

O=C(O)[C@H](O)[C@@H](O)[C@H](O[C@@H]1O[C@H](CO)[C@H](O)[C@H](O)[C@H]1O)[C@H](O)CO [Lactobionic acid, 4-O-β-galactopyranosyl-β-gluconic acid]
pKa [2]: 3.8

CCCCCCCCCCCCCCCCCC(=O)N[C@@H](CO)[C@H](O)[C@H](O)CCCCCCCCCCCCCC [N-stearoyl-phytosphingosine, N-Stearoyl-phytosphingosine]
anti-histamine effects in the Magnus test (guinea pig ileum): potent anti-histamine effects | histamine-induced scratching behavior [3]: effectively inhibited | activation of the transcription factor NF-kappaB (NF-kappaB): inhibited

NC(=O)c1cccnc1 [Niacinamide]
antigen-induced lymphocytic transformation [4]: suppress | transepidermal water loss (atopic dry skin; atopic dermatitis): decrease | moisturizer effectiveness compared with white petrolatum (atopic dry skin; atopic dry skin): more effective moisturizer than white petrolatum | de novo synthesis of ceramides (e.g., glucosylceramide and sphingomyelin) [5]: stimulating | expression of serine palmitoyltransferase [5]: up-regulated | inhibition of 3′-5′ cyclic AMP phosphodiesterase [6]: Inhibit

CC(=O)Oc1ccccc1C(=O)O [aspirin]
effect on cutaneous lupus erythematosus ([7]; orally administered): little or no effect

C[C@H](CCC(=O)O)[C@H]1CC[C@H]2[C@@H]3[C@H](O)C[C@@H]4C[C@H](O)CC[C@]4(C)[C@H]3CC[C@]12C [chenodeoxycholic acid]
inhibition of 11β-hydroxysteroid dehydrogenase [1]: inhibits

CCN(CC)CCCC(C)Nc1ccnc2cc(Cl)ccc12 (centres unmarked) [chloroquin]
effect on cutaneous lupus erythematosus ([7]; orally administered): little or no effect

C[C@]12CCC(=O)C=C1CC[C@@H]1[C@@H]2C(=O)C[C@@]2(C)[C@H]1CC[C@]2(O)C(=O)CO [cortisone]
effect on cutaneous lupus erythematosus ([7]; shots): little or no effect

O=C1O[C@H](CO)[C@@H](O)[C@H](O)[C@H]1O [glucono delta-lactone, Glucono delta-lactone]
protection against ultraviolet radiation [8]: photoprotective activity

CC1(C)[C@@H](O)CC[C@]2(C)[C@H]3C(=O)C=C4[C@@H]5C[C@@](C)(C(=O)O)CC[C@]5(C)CC[C@@]4(C)[C@]3(C)CC[C@@H]12 [glycyrrhetinic acid, 18β-glycyrrhetinic acid]
inhibition of Δ4β-reductase (Δ4β-reductase): inhibit | inhibition of 11β-hydroxysteroid dehydrogenase [1]: inhibit

CC1(C)[C@@H](O[C@H]2O[C@H](C(=O)O)[C@@H](O)[C@H](O)[C@H]2O[C@@H]2O[C@H](C(=O)O)[C@@H](O)[C@H](O)[C@H]2O)CC[C@]2(C)[C@H]3C(=O)C=C4[C@@H]5C[C@@](C)(C(=O)O)CC[C@]5(C)CC[C@@]4(C)[C@]3(C)CC[C@@H]12 [glycyrrhizic acid, Glycyrrhizic acid]
growth of Candida albicans (Candida albicans): inhibit the growth | growth of Staphylococcus aureus (Staphylococcus aureus): inhibit the growth | effect on contact dermatitis (contact dermatitis; administered orally): ineffective | effectiveness against contact dermatitis compared with prednisolone (contact dermatitis; given intraperitoneally): more effective than prednisolone | suppression of contact dermatitis (contact dermatitis; given intraperitoneally): suppress | growth of Mycobacterium smegmatis (Mycobacterium smegmatis): inhibit the growth

CCCCCCCCCCCCCC[C@@H](O)[C@@H](O)[C@@H](N)CO [phytosphingosine, Phytosphingosine]
anti-histamine effects in the Magnus test (guinea pig ileum): potent anti-histamine effects | histamine-induced scratching behavior [3]: effectively inhibited | activation of the transcription factor NF-kappaB (NF-kappaB): inhibited

CCN(CCO)CCCC(C)Nc1ccnc2cc(Cl)ccc12.O=S(=O)(O)O (centres unmarked) [plaquenyl]
effect on cutaneous lupus erythematosus ([7]; orally administered): little or no effect

C[C@]12C=CC(=O)C=C1CC[C@@H]1[C@@H]2C(=O)C[C@@]2(C)[C@H]1CC[C@]2(O)C(=O)CO [prednisone]
effect on cutaneous lupus erythematosus ([7]; orally administered): little or no effect
